Format in all cases: in vivo, mouse
Assay [1] concerns C1039G/+ mice. The experiment in a line: Aortic root growth by echocardiography in C1039G/+ mice, 4 months of treatment. The procedure: Markers of TGFβ antagonism have included reduced plasma levels of free TGFβ, reduced intracellular initiation of the TGFβ signaling cascade, and reduced tissue expression of TGFβ-responsive genes. […] Three independent measurements of the aortic root were made from the long axis echo view in systole at each of 3 time points (baseline, 2 and 4 months of treatment; FIG. 8A). All analyses were performed blinded to genotype and treatment arm. […] This represents the first therapeutic strategy for MFS that derives from interrogation of disease pathogenesis and the first possibility for primary prevention of disease manifestations.

The subject of assay [2] is C1039G/+ mice. Briefly: Aortic wall histology (elastic matrix architecture) in treated C1039G/+ mice. Particulars: 4 months of treatment.
Assay [3] relates to Fbn1C1039G/+ mice. Briefly: Prenatal treatment with losartan and propranolol, aorta of Fbn1C1039G/+ mice. As to conditions: prenatal start. The source says: Treatment of the mothers continued throughout lactation and was maintained in the pups after weaning. Mice were killed at 10 months of age. […] The average aortic wall thickness for untreated wild-type animals was smaller than that in placebo-treated Fbn1C1039G/+ mice (P<0.0001) but was indistinguishable from that in losartan-treated Fbn1C1039G/+ mice (P=0.24, FIG. 20E).

Assay [4] deals with Fbn1C1039G/+ mice. The experiment in a line: Postnatal treatment with losartan and propranolol, aorta of Fbn1C1039G/+ mice. The source says:
However, before treatment, the aortic diameter in Fbn1C1039G/+ mice was always greater than in untreated wild-type mice (1.59±0.11 mm; P<0.002).
Three independent aortic root measurements were obtained for each mouse every 2 months during the 6 months of treatment. Mice were killed at 8 months of age. […] The aortic root growth rate over this period was less in the wild-type mice than in the placebo-treated Fbn1C1039G/+ mice (P<0.0001, FIG. 21I).

“Also recorded” adds a separate entry of the source.

As for `CC(C)NCC(O)COc1cccc2ccccc12` (stereo not drawn) [propranolol], the “Aortic growth during the 4 months of treatment” value in assay [1] (C1039G/+ mice from 7 weeks of age, losartan 50 mg/kg or propranolol 40 mg/kg, aortic root, echo, placebo 0.44±0.09) turned out to be 0.22±0.06 mm. For the same molecule, the “Improvement in any parameter” value in assay [1] (propranolol dose with the same antihypertensive effect as losartan) is recorded as “little improvement”. For the same molecule, the “Elastic matrix architecture / histologic parameters of the aorta” value in assay [2] is “did not improve”. Also, the Aortic dilatation result in assay [3] (10 months) was “marked aortic dilatation”. Moreover, in assay [3] (10 months of treatment), the “Aortic wall architecture score” value is “not influenced” and the “Average aortic wall thickness” value is “indistinguishable from that in the placebo group”. In assay [3] (drinking water, killed at 10 months), the “Elastic fiber fragmentation / architecture (VVG staining)” value is “observed; also recorded: Marked elastic fiber disruption”. In addition, in assay [4] (6 months of treatment), the “Aortic wall / elastic fiber architecture” value is on record as “no discernable effect” and the Aortic wall thickness entry is on record as “no discernable effect”. Further, the “Aortic root growth rate” value in assay [4] (during 6 months of treatment) was “slower rate of aortic root growth than did placebo-treated animals; also recorded: less than that with placebo, yet remains greater than that seen in wild-type mice”. For the same molecule, the “TGF-β signaling in aortic media (nuclear pSmad2)” value in assay [4] (from 7 weeks of age, 6 months) was “Marked increase in nuclear staining for pSmad2”. Besides, the “Elastic fiber fragmentation (VVG staining)” value in assay [4] (from 7 weeks of age, 6 months, drinking water) was “diffuse fragmentation of elastic fibers”.

(Values after patent publication US8597646B2, “Methods and compositons featuring TGF-beta antagonists for the treatment of marfan syndrome and associated disorders” (The Johns Hopkins University, priority 2005, dated 2013).)
